Columns and labels:
[1] = system: Caco-2; assay: drug sensitivity score (DSS) for viability; higher = more toxic; extreme values may be limits of the assay; settings: 72 h
[2] = system: Vero E6; assay: as above; settings: 72 h
[3] = system: HepG2; assay: as above; settings: 72 h
[4] = system: Calu-3; assay: as above; settings: 72 h
[5] = system: U2OS; assay: as above; settings: 72 h
[6] = system: A549-ACE2; assay: drug-induced phospholipidosis relative to tamoxifen; higher = more phospholipidosis
[7] = system: A549-ACE2 infected with SARS-CoV-2; assay: SARS-CoV-2 infection rate relative to DMSO; higher = more infection; settings: 24 h
[8] = system: A549-ACE2 infected with SARS-CoV-2; assay: cell count relative to DMSO; higher = less toxic; settings: 24 h
[9] = system: Caco-2; assay: relative viability EC50 (midpoint between 100% and the lowest measured viability); higher = less toxic; settings: 72 h
[10] = system: Vero E6; assay: as above; settings: 72 h
[11] = system: HepG2; assay: as above; settings: 72 h
[12] = system: Calu-3; assay: as above; settings: 72 h
[13] = system: A549-ACE2; assay: phospholipidosis EC50; higher = less potent phospholipidosis inducer
[14] = system: Caco-2; assay: cell viability relative to DMSO; higher = less toxic; settings: 72 h
[15] = system: Vero E6; assay: as above; settings: 72 h
[16] = system: HepG2; assay: as above; settings: 72 h
[17] = system: Calu-3; assay: as above; settings: 72 h
[18] = system: U2OS; assay: as above; settings: 72 h
[19] = system: A549-ACE2 infected with SARS-CoV-2; assay: morphology score (similarity to uninfected cells); higher = more like uninfected cells; settings: 24 h

O=S(=O)(NCC1CC1)c1ccc(Nc2nccc(N3CCCc4cc(O)ccc43)n2)cc1 [pyrintegrin]
Settings	drug sensitivity score	relative viability EC50 [µM]
[1]	0	–
[2]	1.2	–
[3]	9.2	–
[4]	0.1	–
[5]	2.5	–
[9]	–	> 10
[10]	–	> 10
[11]	–	1.19
[12]	–	> 10

drug-induced phospholipidosis [%], [6]
Settings	0.3 µM	0.833333 µM	3.33333 µM	6.66667 µM	10 µM
24 h	5.15	22.5	132	178	150
48 h	3.16	12.3	135	–	–
72 h	2.43	7.41	–	–	–

Settings	SARS-CoV-2 infection rate [%]	cell count [%]	cell viability [%]	morphology score	phospholipidosis EC50 [µM]
[7], 0.1 µM	104	–	–	–	–
[7], 0.3 µM	103	–	–	–	–
[7], 1 µM	81	–	–	–	–
[7], 3 µM	60	–	–	–	–
[8], 0.1 µM	–	104	–	–	–
[8], 0.3 µM	–	106	–	–	–
[8], 1 µM	–	107	–	–	–
[8], 3 µM	–	86	–	–	–
[13], 24 h	–	–	–	–	1.91
[14], 1 nM	–	–	98.1	–	–
[14], 10 nM	–	–	102	–	–
[14], 100 nM	–	–	100	–	–
[14], 1000 nM	–	–	110	–	–
[14], 10000 nM	–	–	86.2	–	–
[15], 1 nM	–	–	90.5	–	–
[15], 10 nM	–	–	93.9	–	–
[15], 100 nM	–	–	98.9	–	–
[15], 1000 nM	–	–	98.3	–	–
[15], 10000 nM	–	–	75.3	–	–
[16], 1 nM	–	–	102	–	–
[16], 10 nM	–	–	103	–	–
[16], 100 nM	–	–	107	–	–
[16], 1000 nM	–	–	66.6	–	–
[16], 10000 nM	–	–	15.5	–	–
[17], 1 nM	–	–	95.5	–	–
[17], 10 nM	–	–	89.7	–	–
[17], 100 nM	–	–	92.8	–	–
[17], 1000 nM	–	–	102	–	–
[17], 10000 nM	–	–	85	–	–
[18], 1 nM	–	–	99	–	–
[18], 10 nM	–	–	97	–	–
[18], 100 nM	–	–	97.8	–	–
[18], 1000 nM	–	–	96	–	–
[18], 10000 nM	–	–	62.4	–	–
[19], 0.1 µM	–	–	–	0.18	–
[19], 0.3 µM	–	–	–	0.28	–
[19], 1 µM	–	–	–	0.52	–
[19], 3 µM	–	–	–	0.4	–

CCCCCCCCNC(C)C(O)c1ccc(SC(C)C)cc1 (centres undefined) [suloctidil]
Settings	drug sensitivity score	relative viability EC50 [µM]
[1]	0	–
[2]	0	–
[3]	0	–
[4]	11.1	–
[5]	2.4	–
[9]	–	> 10
[10]	–	> 10
[11]	–	> 10
[12]	–	1.12

drug-induced phospholipidosis [%], [6]
Settings	0.3 µM	0.833333 µM	3.33333 µM	6.66667 µM	10 µM	30 µM
24 h	2.27	1.81	10.5	42.2	60	84.3
48 h	4.05	0.83	9.1	35.5	57	95.6
72 h	3.93	-1.43	8.76	31.3	53.9	114

Settings	SARS-CoV-2 infection rate [%]	cell count [%]	cell viability [%]	morphology score	phospholipidosis EC50 [µM]
[7], 0.3 µM	99	–	–	–	–
[7], 3 µM	83	–	–	–	–
[7], 10 µM	26	–	–	–	–
[7], 30 µM	25	–	–	–	–
[8], 0.3 µM	–	102	–	–	–
[8], 3 µM	–	112	–	–	–
[8], 10 µM	–	122	–	–	–
[8], 30 µM	–	65	–	–	–
[13], 24 h	–	–	–	–	7.11
[13], 48 h	–	–	–	–	9.12
[13], 72 h	–	–	–	–	12.5
[14], 1 nM	–	–	105	–	–
[14], 10 nM	–	–	97.3	–	–
[14], 100 nM	–	–	99.4	–	–
[14], 1000 nM	–	–	101	–	–
[14], 10000 nM	–	–	92.6	–	–
[15], 1 nM	–	–	93.8	–	–
[15], 10 nM	–	–	98.3	–	–
[15], 100 nM	–	–	93	–	–
[15], 1000 nM	–	–	98.3	–	–
[15], 10000 nM	–	–	97.4	–	–
[16], 1 nM	–	–	98.7	–	–
[16], 10 nM	–	–	109	–	–
[16], 100 nM	–	–	98.5	–	–
[16], 1000 nM	–	–	119	–	–
[16], 10000 nM	–	–	102	–	–
[17], 1 nM	–	–	99.4	–	–
[17], 10 nM	–	–	97.1	–	–
[17], 100 nM	–	–	107	–	–
[17], 1000 nM	–	–	57	–	–
[17], 10000 nM	–	–	-0.5	–	–
[18], 1 nM	–	–	98.2	–	–
[18], 10 nM	–	–	95	–	–
[18], 100 nM	–	–	99.7	–	–
[18], 1000 nM	–	–	95.5	–	–
[18], 10000 nM	–	–	64.5	–	–
[19], 0.3 µM	–	–	–	0.02	–
[19], 3 µM	–	–	–	0.31	–
[19], 10 µM	–	–	–	0.74	–
[19], 30 µM	–	–	–	0.13	–

From the supplement of paper PMC13380429
